According to patent US20120318262A1 (priority 2011, published 2012):

Tests used:
CK1α = CK1α (Homo sapiens, UniProt P48729); assay: kinase activity of purified recombinant CK1α (Tau, casein substrates; kinase panel); type: biochemical
Description: (§1) CK1α immunoprecipitated from lysates was incubated with purified β-catenin (100 nM) in kinase assay containing (^γ32P)ATP. Samples were processed for SDS-PAGE/autoradiography. As control, immunoprecipitates were treated with the CK1 inhibitor, CKI-7 (1 μM). […] HA immunoprecipitates were analyzed by LCMS. […] (FIG. 9C) Structure of VU-WS113. […] (FIG. 9F) CK1α (100 nM) was incubated with recombinant casein (100 nM) in the presence or absence of compounds in a kinase reaction containing [γ32P]ATP. […] Mean±s.e.m. is shown (performed in triplicates).

C57Bl/6 mice [1] = assay: myocardial infarct model, daily IP injection, Ki67/Sca1 histology
Description: Myocardial infarcts were induced in male C57Bl/6 mice by coronary ligation. A sham-injured cohort underwent all aspects of the procedure except ligation of the coronary artery. […] Mice were sacrificed (n=3 for each time point and each condition) on days 7, 9 and 15 after injury. Hearts were isolated for histologic analysis.

C57Bl/6 mice [2] = assay: 2 mm ear punch wound model; type: in vivo; settings: day 30
Description: (FIG. 8A) Low magnification (4×) view of H&E stained slide showing epithelial repair of wounded skin treated with 211 at 30 days after injury. […] (FIGS. 8C-D) represent H&E of low (10×) and high (20×) magnification view of pyrvinium-treated ears. (FIGS. 8E-F) Trichrome blue staining showing low (FIG. 8E, 10×) and high power (FIG. 8F, 20×) view of pyrvinium-repaired ear.
The ears of six month old C57BL/6 mice were wounded by a 2 mm ear punch (n=3). […] The wounds were monitored over a period of 1 month and the digital photographs of the healing ears were taken periodically. […] The mice were sacrificed at day 30 and histological analysis of the wounded ear was performed.
FIGS. 8C-D show H&E stained slide of low (10×) and high (20×) magnifications of pyrvinium-treated ears.

Wnt signaling = assay: TOPflash reporter assay, HEK 293 STF cells treated with Wnt3a; type: cell-based
Description: Graph represents mean±s.e.m of TOPflash signal normalized to cell number (performed in quadruplicate). […] Data shown represent mean of four independent amplification reactions, graphed as relative expression to unstimulated cells. Expression levels were normalized to β-actin mRNA. Error bars, RQ values with 95% confidence.
as §1, with “LCMS. Graph represents mean±s.e.m. of relative abundance of pyrvinium normalized to bead control (performed in triplicate).” for “LCMS.”

C57Bl/6 mice [3] = type: in vivo; settings: p<0.05
Description: FIGS. 5A-D. Mouse MI model. Representative mouse EKG tracings pre (FIG. 5A) and post (FIG. 5B) coronary artery ligation. […] Arrows mark lateral and posterior left ventricle (LV). LVIDD, LVIDS=LV internal diameter at systole and […], respectively. RV=right ventricle. […] Cardiac dimensions were obtained from 2-D guided M-mode images (100 frames/sec) and were read blinded using short axis and a parasternal long-axis views with the leading edge method. All echo measurements were averaged over 3 consecutive beats on unsedated mice at 7 and 30 days after infarction. Statistical significance assessed by the Wilcoxon rank sum test.
Ventricular remodeling and cardiac functional parameters will be assessed by echo.
Mammalian cardiomyocytes irreversibly withdraw from the cell cycle soon after birth and undergo terminal differentiation. […] Therefore, cardiac injury causes permanent myocardial loss and cardiac dysfunction. […] Proliferation was assessed by immunostaining for Ki-67.

Sequence of CK1α (P48729 whole entry): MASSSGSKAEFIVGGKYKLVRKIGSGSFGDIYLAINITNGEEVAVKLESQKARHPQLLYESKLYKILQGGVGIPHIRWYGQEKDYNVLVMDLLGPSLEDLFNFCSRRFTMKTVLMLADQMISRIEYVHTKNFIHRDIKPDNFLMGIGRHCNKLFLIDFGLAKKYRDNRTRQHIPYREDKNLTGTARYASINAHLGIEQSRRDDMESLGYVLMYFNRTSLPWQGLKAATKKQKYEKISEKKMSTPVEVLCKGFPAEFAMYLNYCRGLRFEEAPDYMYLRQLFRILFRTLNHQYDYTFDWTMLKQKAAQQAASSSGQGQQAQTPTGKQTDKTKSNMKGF

| Structure (SMILES) | activation of CK1α (CK1α) | Ki-67+ cells co-labeled with Sca1+ antibody (C57Bl/6 mice [1]; 40 μg/kg IP) | Sca1+ CPCs share of Wnt-inhibitor responsive population (C57Bl/6 mice [1]; 40 μg/kg IP) | increase in left ventricular, peri-infarct Ki67+ cells (C57Bl/6 mice [1]; 40 μg/kg IP daily through day 6, 7-9 days after MI) | post-infarct proliferation of cardiac progenitors (C57Bl/6 mice [1]; 7 d after injury, control C-211) | histology of wounded ear (C57Bl/6 mice [2]; listed as Cmpd 113) | histology of wounded ear (C57Bl/6 mice [2]; listed as compound 113) | inhibition of TOPflash / Wnt signaling (Wnt signaling; Wnt3a) | average difference in fractional shortening between days 7 and 30 (C57Bl/6 mice [3]) | IC50 (Wnt signaling; Wnt3a-conditioned media, 24 hours, read-out: IC50 of TOPflash (Wnt signaling) inhibition) |
| --- | --- | --- | --- | --- | --- | --- | --- | --- | --- | --- |
| Cc1cc(C(=O)Nc2ccc3cc(CN4CCOCC4)ccc3n2)c(C)n1-c1ccccc1 [VU-WS113, 2,5-dimethyl-N-(6-(morpholinomethyl)quinolin-2-yl)-1-phenyl-1H-pyrrole-3-carboxamide] | activate CK1α | at least 50% | > 60% | 10-13 fold | significantly enhances post-infarct proliferation of cardiac progenitors | injured hole was repaired | Injured hole was repaired | retained the capacity to inhibit Wnt signaling |  |  |
| Cc1cc(/C=C/c2ccc3cc(N(C)C)ccc3[n+]2C)c(C)n1-c1ccccc1 [pyrvinium, 6-(Dimethylamino)-2-[2-(2,5-dimethyl-1-phenyl-1H-pyrrol-3-yl)ethenyl]-1-methylquinolinium, reference compound] |  |  |  |  |  |  |  |  | 22.3±5.2 | ~10 nM |
